Assay results from PMC6364417, “Kinase inhibitor library screening identifies synergistic drug combinations effective in sensitive and resistant melanoma cells” (Journal of Experimental & Clinical Cancer Research : CR, 2019).

Assays:
Test in all cases: Kinase inhibitor library screening, PrestoBlue cell viability, 1 or 10 μM, 72 h
[1] = tested on: 501Mel-GP cells (Dabrafenib-resistant); conditions: 501Mel GP
Method: (§1) After 72 h of treatment, cell viability was assessed using the PrestoBlue Cell Viability Reagent (ThermoFisher Scientific). Measurements were performed with the CLARIOstar Monochromator microplate reader (BMG Labtech).
(§2) Kinase inhibitor library screening. […] Each cell line was treated in its sensitive form (parental), and also as 2 resistant derivatives, which were made resistant to either Vemurafenib (XP) or Dabrafenib (GP). Drugs were added at 2 different concentrations, 1 and 10 μM, for 72 h and cell viability was assessed using the PrestoBlue Cell Viability assay. Results are depicted as % viability compared to untreated cells. Each cell line was analyzed at least in duplicate. […] (XLSX 95 kb)

IGR37 cells (parental) = conditions: IGR37 Parental
Method: as §1, §2

[2] = tested on: IGR37-XP cells (Vemurafenib-resistant); conditions: IGR37 XP
Method: as §1, §2

501Mel cells (parental) = conditions: 501Mel Parental
Method: as §1, §2

[3] = tested on: 501Mel-XP cells (Vemurafenib-resistant); conditions: 501Mel XP
Method: as §1, §2

A375 cells (parental) = conditions: A375 Parental
Method: as §1, §2

[4] = tested on: A375-XP cells (Vemurafenib-resistant); conditions: A375 XP
Method: as §1, §2

[5] = tested on: IGR37-GP cells (Dabrafenib-resistant); conditions: IGR37 GP
Method: as §1, §2

[6] = tested on: A375-GP cells (Dabrafenib-resistant); conditions: A375 GP
Method: as §1, §2

Question: Which “cell viability, 501Mel GP, 1μΜ” value ([1]; 1μΜ, 72 h, in %) does the source give for CC(O)C(=O)O.CC(O)C(=O)O.CN1CCN(c2ccc3nc(-c4c(N)c5c(F)cccc5[nH]c4=O)[nH]c3c2)CC1 here?
Answer: 100.0

Question: What about the “cell viability, 501Mel GP, 10μΜ” value ([1]; 10μΜ, 72 h, in %) of the same molecule?
Answer: 0.0395

Question: And the “cell viability, IGR37 Parental, 1μΜ” value (IGR37 cells (parental); 1μΜ, 72 h, in %)?
Answer: 105.9

Question: What about the “cell viability, IGR37 Parental, 10μΜ” value (IGR37 cells (parental); 10μΜ, 72 h, in %) of the same molecule?
Answer: 76.1

Question: And the cell viability, IGR37 XP, 10μΜ ([2]; 10μΜ, 72 h)?
Answer: 33%

Question: And the “cell viability, IGR37 XP, 1μΜ” value ([2]; 1μΜ, 72 h, in %)?
Answer: 106.9

Question: And the “cell viability, 501Mel Parental, 1μΜ” value (501Mel cells (parental); 1μΜ, 72 h, in %)?
Answer: 106.3

Question: And the “cell viability, 501Mel Parental, 10μΜ” value (501Mel cells (parental); 10μΜ, 72 h, in %)?
Answer: 0.756

Question: What about the “cell viability, 501Mel XP, 1μΜ” value ([3]; 1μΜ, 72 h, in %) of the same molecule?
Answer: 91.1

Question: And the “cell viability, 501Mel XP, 10μΜ” value ([3]; 10μΜ, 72 h, in %)?
Answer: -0.0481

Question: What about the “cell viability, A375 Parental, 1μΜ” value (A375 cells (parental); 1μΜ, 72 h, in %) of the same molecule?
Answer: 106.9

Question: What about the “cell viability, A375 Parental, 10μΜ” value (A375 cells (parental); 10μΜ, 72 h, in %) of the same molecule?
Answer: 48.0

Question: And the “cell viability, A375 XP, 10μΜ” value ([4]; 10μΜ, 72 h, in %)?
Answer: 59.2

Question: And the cell viability, IGR37 GP, 10μΜ ([5]; 10μΜ, 72 h)?
Answer: 46.5%

Question: What about the “cell viability, IGR37 GP, 1μΜ” value ([5]; 1μΜ, 72 h, in %) of the same molecule?
Answer: 106.1

Question: And the “cell viability, A375 GP, 1μΜ” value ([6]; 1μΜ, 72 h, in %)?
Answer: 91.8

Question: What about the “cell viability, A375 GP, 10μΜ” value ([6]; 10μΜ, 72 h, in %) of the same molecule?
Answer: 46.4

Question: COc1cc(Nc2ncc(F)c(Nc3ccc4c(n3)N(COP(=O)([O-])[O-])C(=O)C(C)(C)O4)n2)cc(OC)c1OC.[Na+].[Na+] was tested. Which “cell viability (kinase inhibitor library screening)” value ([1]; 1μΜ, in %) did it give?
Answer: 98.3

Question: What about the “cell viability (kinase inhibitor library screening)” value ([1]; 10μΜ, in %) of the same molecule?
Answer: 70.8

Question: And the “cell viability (kinase inhibitor library screening)” value (IGR37 cells (parental); 1μΜ, in %)?
Answer: 103.8

Question: What about the “cell viability (kinase inhibitor library screening)” value (IGR37 cells (parental); 10μΜ, in %) of the same molecule?
Answer: 87.6

Question: And the “cell viability (kinase inhibitor library screening)” value ([2]; 1μΜ, in %)?
Answer: 94.1

Question: What about the “cell viability (kinase inhibitor library screening)” value ([2]; 10μΜ, in %) of the same molecule?
Answer: 20.4

Question: And the “cell viability (kinase inhibitor library screening)” value (501Mel cells (parental); 10μΜ, in %)?
Answer: 84.1

Question: And the “cell viability (kinase inhibitor library screening)” value ([3]; 1μΜ, in %)?
Answer: 98.8

Question: What about the “cell viability (kinase inhibitor library screening)” value ([3]; 10μΜ, in %) of the same molecule?
Answer: 37.9

Question: And the “cell viability (kinase inhibitor library screening)” value (A375 cells (parental); 10μΜ, in %)?
Answer: 56.1

Question: What about the “cell viability (kinase inhibitor library screening)” value ([4]; 10μΜ, in %) of the same molecule?
Answer: 70.0

Question: What about the “cell viability (kinase inhibitor library screening)” value ([5]; 1μΜ, in %) of the same molecule?
Answer: 89.3

Question: And the “cell viability (kinase inhibitor library screening)” value ([5]; 10μΜ, in %)?
Answer: 37.8

Question: What about the “cell viability (kinase inhibitor library screening)” value ([6]; 1μΜ, in %) of the same molecule?
Answer: 95.3

Question: And the “cell viability (kinase inhibitor library screening)” value ([6]; 10μΜ, in %)?
Answer: 57.6

Question: For O=C1NC(=O)C(=Cc2ccc(-c3ccc(F)cc3)o2)S1 (stereo in doubt) [CAY10505], which “Cell viability in kinase inhibitor library screening, 501Mel GP, 1μΜ” value ([1]; 1μΜ, 72 h, in %) is on record?
Answer: 96.4

Question: And the “Cell viability in kinase inhibitor library screening, 501Mel GP, 10μΜ” value ([1]; 10μΜ, 72 h, in %)?
Answer: 89.6

Question: And the “Cell viability in kinase inhibitor library screening, IGR37 Parental, 1μΜ” value (IGR37 cells (parental); 1μΜ, 72 h, in %)?
Answer: 103.7

Question: And the “Cell viability in kinase inhibitor library screening, IGR37 Parental, 10μΜ” value (IGR37 cells (parental); 10μΜ, 72 h, in %)?
Answer: 103.3

Question: And the Cell viability in kinase inhibitor library screening, IGR37 XP, 10μΜ ([2]; 10μΜ, 72 h)?
Answer: 77.3%

Question: And the “Cell viability in kinase inhibitor library screening, 501Mel Parental, 1μΜ” value (501Mel cells (parental); 1μΜ, 72 h, in %)?
Answer: 99.8

Question: And the “Cell viability in kinase inhibitor library screening, 501Mel Parental, 10μΜ” value (501Mel cells (parental); 10μΜ, 72 h, in %)?
Answer: 97.3

Question: What about the “Cell viability in kinase inhibitor library screening, 501Mel XP, 1μΜ” value ([3]; 1μΜ, 72 h, in %) of the same molecule?
Answer: 99.8

Question: What about the “Cell viability in kinase inhibitor library screening, 501Mel XP, 10μΜ” value ([3]; 10μΜ, 72 h, in %) of the same molecule?
Answer: 90.3

Question: And the “Cell viability in kinase inhibitor library screening, A375 Parental, 10μΜ” value (A375 cells (parental); 10μΜ, 72 h)?
Answer: 93.9

Question: And the “Cell viability in kinase inhibitor library screening, A375 Parental, 1μΜ” value (A375 cells (parental); 1μΜ, 72 h)?
Answer: 105.4

Question: What about the “Cell viability in kinase inhibitor library screening, A375 XP, 1μΜ” value ([4]; 1μΜ, 72 h) of the same molecule?
Answer: 107.0

Question: What about the “Cell viability in kinase inhibitor library screening, A375 XP, 10μΜ” value ([4]; 10μΜ, 72 h) of the same molecule?
Answer: 110.5

Question: And the Cell viability in kinase inhibitor library screening, IGR37 GP, 10μΜ ([5]; 10μΜ, 72 h)?
Answer: 94.4%

Question: And the “Cell viability in kinase inhibitor library screening, IGR37 GP, 1μΜ” value ([5]; 1μΜ, 72 h, in %)?
Answer: 98.2

Question: What about the “Cell viability in kinase inhibitor library screening, A375 GP, 1μΜ” value ([6]; 1μΜ, 72 h) of the same molecule?
Answer: 99.9

Question: Which “cell viability (kinase inhibitor library screening)” value ([1]; 1μΜ, 72 h) does the source give for Cc1[nH]nc2ccc(-c3cncc(OC[C@@H](N)Cc4ccccc4)c3)cc12 [A-674563] here?
Answer: 64.5%

Question: And the “cell viability (kinase inhibitor library screening)” value ([1]; 10μΜ, 72 h)?
Answer: 0.638%

Question: What about the “cell viability (kinase inhibitor library screening)” value (IGR37 cells (parental); 1μΜ, 72 h) of the same molecule?
Answer: 96.7%

Question: What about the “cell viability (kinase inhibitor library screening)” value (IGR37 cells (parental); 10μΜ, 72 h) of the same molecule?
Answer: 1.9%

Question: And the “cell viability (kinase inhibitor library screening)” value ([2]; 1μΜ, 72 h)?
Answer: 78.0%

Question: And the “cell viability (kinase inhibitor library screening)” value ([2]; 10μΜ, 72 h)?
Answer: 2.1%

Question: What about the “cell viability (kinase inhibitor library screening)” value (501Mel cells (parental); 1μΜ, 72 h) of the same molecule?
Answer: 73.1%

Question: What about the “cell viability (kinase inhibitor library screening)” value (501Mel cells (parental); 10μΜ, 72 h) of the same molecule?
Answer: 1.4%

Question: And the “cell viability (kinase inhibitor library screening)” value ([3]; 1μΜ, 72 h)?
Answer: 56.5%

Question: What about the “cell viability (kinase inhibitor library screening)” value ([3]; 10μΜ, 72 h) of the same molecule?
Answer: 0.5%

Question: And the “cell viability (kinase inhibitor library screening)” value (A375 cells (parental); 10μΜ, 72 h)?
Answer: 4.6%

Question: And the “cell viability (kinase inhibitor library screening)” value (A375 cells (parental); 1μΜ, 72 h)?
Answer: 82.1%

Question: What about the “cell viability (kinase inhibitor library screening)” value ([4]; 1μΜ, 72 h) of the same molecule?
Answer: 54.3%

Question: What about the “cell viability (kinase inhibitor library screening)” value ([4]; 10μΜ, 72 h) of the same molecule?
Answer: 6.6%

Question: What about the “cell viability (kinase inhibitor library screening)” value ([5]; 1μΜ, 72 h) of the same molecule?
Answer: 99.0%

Question: And the “cell viability (kinase inhibitor library screening)” value ([5]; 10μΜ, 72 h)?
Answer: 2.8%

Question: What about the “cell viability (kinase inhibitor library screening)” value ([6]; 1μΜ, 72 h) of the same molecule?
Answer: 63.4%

Question: What about the “cell viability (kinase inhibitor library screening)” value ([6]; 10μΜ, 72 h) of the same molecule?
Answer: 2.7%
